Experimental findings from ChEMBL document CHEMBL5728306, “Spirocyclic compounds” (2021) are described below.

The target in the test is Mitogen-activated protein kinase 1 (Homo sapiens, UniProt P28482). As to the kind of experiment: ERK1 & ERK2 were then activated by the addition of F1-Substrate, ATP and metal solution and incubated for 1 h at rt. After 1 h, the reaction was terminated by the addition of […] of Termination Buffer (QuickScout Screening Assist MSA; Carna Biosciences) to the well.

The structures appear in SMILES notation.

Chain of Mitogen-activated protein kinase 1 (P28482 whole entry): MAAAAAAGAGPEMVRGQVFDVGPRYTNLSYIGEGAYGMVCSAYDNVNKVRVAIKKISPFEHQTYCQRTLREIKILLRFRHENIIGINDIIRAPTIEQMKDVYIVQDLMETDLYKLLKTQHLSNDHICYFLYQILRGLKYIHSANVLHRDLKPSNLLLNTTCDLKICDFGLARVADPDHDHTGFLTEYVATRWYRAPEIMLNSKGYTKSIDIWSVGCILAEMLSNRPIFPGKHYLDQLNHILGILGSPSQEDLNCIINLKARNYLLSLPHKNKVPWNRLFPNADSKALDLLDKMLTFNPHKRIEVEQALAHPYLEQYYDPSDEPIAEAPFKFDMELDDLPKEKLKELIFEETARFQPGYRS

Consider `Cc1ncc(-c2n[nH]c3ccc(N4CC[C@]5(CCN(CC(=O)N6CC=C(c7ccc(-c8ncn(C)n8)cc7)CC6)C5)C4=O)nc23)s1`, for which the half-inhibitory concentration (IC50) is below 50 nM.

In general, IC50 refers to the point on the concentration scale where inhibition reaches its midpoint. Lower therefore signals inhibition by little substance.
